By EC50 is commonly meant the concentration needed to bring the measured effect to its halfway point.

Test in all cases: microbe, parasite or virus in culture
In test [1] the test system is Pseudotyped HCV GT1b particles (HCVpp), entry into Huh7-high CD81 cells. The format is cell-based, HCV GT1b Con1 strain. As to conditions: Hepatitis C virus, GT1B, 72 h, read-out: HCVpp GT-1b (EC50, μM).
Test [2] has as its system Pseudotyped HCV GT1a particles (HCVpp), entry into Huh7-high CD81 cells. The format is cell-based, HCV GT1a H77 strain. The note with it: Hepatitis C virus, 72 h, read-out: HCVpp GT-1a (EC50, μM).
For test [3], the system named is pseudotyped VSV G particles (VSVpp) in Huh7-high CD81 cells. The format is cell-based, vesicular stomatitis virus. The note with it: Vesicular stomatitis virus, 72 h, read-out: VSVpp (EC50, μM).

Where a name gives a salt, the structure may show the parent alone. Some results are limits rather than exact numbers.

Consider `Nc1nc(Nc2cc(Cl)c(-c3ccc(N4CCCS4(=O)=O)cc3)c(Cl)c2)n[nH]1` [Compound 289, N-3-[2,6-Dichloro-4′-(1,1-dioxo-1,6-isothiazolidin-2-yl)-biphenyl-4-yl]-1H-[1,2,4]triazole-3,5-diamine], for which the EC50 in test [1] was 0.046 µM; in test [2], 0.002 µM; in test [3], 17.8 µM.

For `COc1cccc(-c2c(Cl)cc(Nc3n[nH]c(N)n3)cc2Cl)c1` [Compound 100, N-3-(2,6-Dichloro-3′-methoxy-biphenyl-4-yl)-1H-[1,2,4]triazole-3,5-diamine], the EC50 in test [1] is 0.839 µM; in test [2], 0.062 µM; in test [3], 14.3 µM.

Turning to `Nc1nc(Nc2cc(Cl)c(-c3cccc(C(=O)O)c3)c(Cl)c2)n[nH]1` [Compound 106, 4′-(5-Amino-1H-[1,2,4]triazol-3-ylamino)-2′,6′-dichloro-biphenyl-3-carboxylic acid], the EC50 in test [1] came out at 23.4 µM; in test [2], 1.17 µM; in test [3] it was 100 µM.

Consider `Nc1nc(Nc2cc(Cl)c(-c3ccc(C(F)(F)F)cc3)c(Cl)c2)n[nH]1` [Compound 99, N-3-(2,6-Dichloro-4′-trifluoromethyl-biphenyl-4-yl)-1H-[1,2,4]triazole-3,5-diamine], for which the EC50 in test [1] was 1.57 µM; in test [2], 0.056 µM; in test [3], 20.6 µM.

As for `CC(C)S(=O)(=O)c1ccc(-c2c(F)cc(Nc3n[nH]c(N)n3)cc2Cl)cc1` [Compound 23, N*3*-[2-Chloro-6-fluoro-4′-(propane-2-sulfonyl)-biphenyl-4-yl]-1H-[1,2,4]triazole-3,5-diamine], the EC50 in test [1] is 0.092 µM; in test [2] it was 0.023 µM; in test [3] it was more than 10 µM.

Consider `Nc1nc(Nc2ccc(-c3ccccc3)cc2)n[nH]1` [Compound 55, N*3*-Biphenyl-4-yl-1H-[1,2,4]triazole-3,5-diamine], for which the values for the half-maximal effective concentration (EC50) in test [1], in test [2] and in test [3] were 100 µM, 25.1 µM and 100 µM, respectively.

As to `Nc1nc(Nc2cc(Cl)c(-c3ccc(OC[C@@H]4CCCN4)cc3)c(Cl)c2)n[nH]1` [Compound 265, N*3*-[2,6-Dichloro-4′-((S)-1-pyrrolidin-2-ylmethoxy)-biphenyl-4-yl]-1H-[1,2,4]triazole-3,5-diamine], the EC50 in test [1] came to 0.063 µM; in test [2], 0.005 µM; in test [3], 17.9 µM.

As to `Nc1nc(Nc2ccc(-c3cccc(F)c3)c(Cl)c2)n[nH]1` [Compound 148, N*3*-(2-Chloro-3′-fluoro-biphenyl-4-yl)-1H-[1,2,4]triazole-3,5-diamine], the EC50 in test [1] amounted to 3.34 µM; in test [2] it was 0.301 µM; in test [3], 33.8 µM.

On to `N#Cc1ccc(-c2c(Cl)cc(Nc3n[nH]c(N)n3)cc2Cl)cc1` [Compound 93, 4′-(5-Amino-1H-1,2,4-triazol-3-ylamino)-2′,6′-dichlorobiphenyl-4-carbonitrile], for which the EC50 turned out to be 0.364 µM in test [1], 0.015 µM in test [2] and 14.8 µM in test [3].

Turning to `Nc1nc(Nc2cc(Cl)c(-c3ccccc3F)c(Cl)c2)n[nH]1` [Compound 287, N3-(2,6-dichloro-2′-fluorobiphenyl-4-yl)-1H-1,2,4-triazole-3,5-diamine], the half-maximal effective concentration (EC50) in test [1] was determined as 0.366 µM; in test [2], 0.005 µM; in test [3], 13 µM.

Regarding `CNC(=O)c1ccc(-c2c(Cl)cc(Nc3n[nH]c(N)n3)cc2Cl)cc1` [Compound 116, 4′-(5-Amino-1H-[1,2,4]triazol-3-ylamino)-2′,6′-dichloro-biphenyl-4-carboxylic acid methylamide], the EC50 in test [1] is 0.086 µM; in test [2] it was 0.002 µM; in test [3] it was 29.4 µM.

For `Nc1nc(Nc2cc(Cl)c(-c3ccc(S(=O)(=O)N4CCCC4)cc3)c(C(F)(F)F)c2)n[nH]1` [Compound 170, N3-(2-chloro-4′-(pyrrolidin-1-ylsulfonyl)-6-(trifluoromethyl)biphenyl-4-yl)-1H-1,2,4-triazole-3,5-diamine], the EC50 in test [1] is 0.026 µM; in test [2] it was 0.02 µM; in test [3], 14.1 µM.

Consider `CC(C)(C)NS(=O)(=O)c1ccc(-c2c(Cl)cc(Nc3n[nH]c(N)n3)cc2C(F)(F)F)cc1OC(F)(F)F` [Compound 217, 4′-(5-Amino-1H-[1,2,4]triazol-3-ylamino)-6′-chloro-3-trifluoromethoxy-2′-trifluoromethylbiphenyl-4-sulfonic acid tert-butylamide], for which the half-maximal effective concentration (EC50) was 0.003 µM in test [2] and 7.5 µM in test [3].

On to `CC(C)S(=O)(=O)c1ccc(-c2c(Cl)cc(Nc3n[nH]c(N)n3)cc2C(F)(F)F)cc1` [Compound 181, N3-(2-chloro-4′-(isopropylsulfonyl)-6-(trifluoromethyl)biphenyl-4-yl)-1H-1,2,4-triazole-3,5-diamine], for which the concentration giving a half-maximal response (EC50) in test [1] was determined as 0.059 µM; in test [2], 0.021 µM.

In the case of `CC(C)(C)NS(=O)(=O)c1ccc(-c2c(Cl)cc(Nc3n[nH]c(N)n3)cc2C(F)(F)F)cc1` [Compound 219, 4′-(5-Amino-1H-[1,2,4]triazol-3-ylamino)-6′-chloro-2′-trifluoromethyl-biphenyl-4-sulfonic acid tert-butylamide], the EC50 in test [2] was determined as 0.011 µM; in test [3], 16.2 µM.

Consider `CC(C)C(=O)Nc1cccc(-c2c(Cl)cc(Nc3n[nH]c(N)n3)cc2Cl)c1` [Compound 252, N-[4′-(5-amino-1H-[1,2,4]triazol-3-ylamino)-2′,6′-dichloro-biphenyl-3-yl]-isobutyramide], for which the results for the concentration giving a half-maximal response (EC50) in test [1] and in test [3] were 0.067 µM and more than 10 µM, respectively.

In the case of `CC(C)(C)OC(=O)N1CCC(Oc2ccc(-c3c(Cl)cc(Nc4n[nH]c(N)n4)cc3C(F)(F)F)cc2)CC1` [Compound 138, 4-[4′-(5-Amino-1H-[1,2,4]triazol-3-ylamino)-6′-chloro-2′-trifluoromethyl-biphenyl-4-yloxy]-piperidine-1-carboxylic acid tert-butyl ester], the half-maximal effective concentration (EC50) was 0.162 µM in test [1] and more than 10 µM in test [3].

Turning to `Nc1nc(Nc2ccc(-c3c(Cl)cccc3Cl)cc2)n[nH]1` [Compound 258], the results for the EC50 in test [1] and in test [3] were 20.2 µM and 26.2 µM, respectively.

Take `Nc1nc(Nc2cc(Cl)c(-c3ccc(S(=O)(=O)C4CCCN(CCC(F)(F)F)C4)cc3)c(C(F)(F)F)c2)n[nH]1` (centres unmarked) [Compound 11, N*3*-{2-Chloro-6-trifluoromethyl-4′-[1-(3,3,3-trifluoro-propyl)-piperidine-3-sulfonyl]-biphenyl-4-yl}-1H-[1,2,4]triazole-3,5-diamine; hydrochloride]: the EC50 in test [1] was 0.017 µM; in test [3], 6.78 µM.

On to `Nc1n[nH]c(Nc2cc(Cl)c(-c3ccc(OC4CCCNC4)cc3)c(Cl)c2)n1` (centres unmarked) [Compound 259], for which the half-maximal effective concentration (EC50) is 0.089 µM in test [1] and 4.27 µM in test [3].

As to `CC(C)(CO)NS(=O)(=O)c1ccc(-c2c(Cl)cc(Nc3n[nH]c(N)n3)cc2C(F)(F)F)cc1` [Compound 226, 4′-(5-Amino-1H-[1,2,4]triazol-3-ylamino)-6′-chloro-2′-trifluoromethyl-biphenyl-4-sulfonic acid (2-hydroxy-1,1-dimethyl-ethyl)-amide], the values for the EC50 in test [1] and in test [3] were 0.032 µM and 5.39 µM, respectively.

`CC(C)CS(=O)(=O)c1ccc(-c2c(Cl)cc(Nc3n[nH]c(N)n3)cc2C(F)(F)F)cc1` [Compound 65, N*3*-[6-Chloro-4′-(2-methyl-propane-1-sulfonyl)-2-trifluoromethyl-biphenyl-4-yl]-1H-[1,2,4]triazole-3,5-diamine]: the half-maximal effective concentration (EC50) is 0.026 µM in test [1] and more than 10 µM in test [3].

The values above are taken from US9693997B2, “Antiviral compounds” (priority 2013, dated 2017).
